In ChEMBL document CHEMBL1201862, “PubChem BioAssay data set” (2004):
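Assay format: 96-well plates, 48-hour exposure. GI50 = concentration required for 50% inhibition of growth.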 Activity calls are given as the source filed them. Rule as the data show it: active = GI50 up to about 1.1 µM and inactive = higher.

Tests used:
Experiment in all cases: NCI tumour cell line growth inhibition, 48 h
UACC-257 = system: UACC-257
A498 = system: A498
SNB-19 = system: SNB-19
SF-539 = system: SF-539
NCI-H460 = system: NCI-H460
MOLT-4 = system: MOLT-4
786-0 = system: 786-0
SK-MEL-28 = system: SK-MEL-28
NCI-H226 = system: NCI-H226
KM12 = system: KM12
M14 = system: M14
HT-29 = system: HT-29
OVCAR-4 = system: OVCAR-4
MDA-MB-231 = system: MDA-MB-231
NCI-H23 = system: NCI-H23
HCC 2998 = system: HCC 2998
Hs-578T = system: Hs-578T
SNB-75 = system: SNB-75
Malme-3M = system: Malme-3M
IGROV-1 = system: IGROV-1
PC-3 = system: PC-3
SW-620 = system: SW-620
SF-295 = system: SF-295
OVCAR-5 = system: OVCAR-5
T47D = system: T47D
SK-MEL-5 = system: SK-MEL-5
HL-60 = system: HL-60
A549 = system: A549
UACC-62 = system: UACC-62
HOP-92 = system: HOP-92
NCI/ADR-RES = system: NCI/ADR-RES
RXF 393 = system: RXF 393
LOX IMVI = system: LOX IMVI
MDA-MB-435 = system: MDA-MB-435
SK-MEL-2 = system: SK-MEL-2
DU-145 = system: DU-145
HCT-116 = system: HCT-116
SF-268 = system: SF-268
EKVX = system: EKVX
MDA-N = system: MDA-N
HOP-62 = system: HOP-62
SK-OV-3 = system: SK-OV-3
NCI-H522 = system: NCI-H522
OVCAR-3 = system: OVCAR-3
SR = system: SR
MCF7 = system: MCF7
U-251 = system: U-251
UO-31 = system: UO-31
CCRF-CEM = system: CCRF-CEM
BT-549 = system: BT-549
K562 = system: K562
COLO 205 = system: COLO 205
HCT-15 = system: HCT-15
ACHN = system: ACHN
OVCAR-8 = system: OVCAR-8
SN12C = system: SN12C
RPMI-8226 = system: RPMI-8226
TK-10 = system: TK-10

Which results are given for `O=C(O)CC(Cc1ccc2c(c1)OCO2)C(=O)O` (stereo not drawn)?
GI50 (UACC-257): > 100 µM (inactive); GI50 (A498): > 100 µM (inactive); GI50 (SNB-19): > 100 µM (inactive); GI50 (SF-539): > 100 µM (inactive); GI50 (NCI-H460): > 100 µM (inactive); GI50 (MOLT-4): > 100 µM (inactive); GI50 (786-0): > 100 µM (inactive); GI50 (SK-MEL-28): > 100 µM (inactive); GI50 (NCI-H226): > 100 µM (inactive); GI50 (KM12): > 100 µM (inactive); GI50 (M14): > 100 µM (inactive); GI50 (HT-29): > 100 µM (inactive); GI50 (OVCAR-4): > 100 µM (inactive); GI50 (MDA-MB-231): > 100 µM (inactive); GI50 (NCI-H23): > 100 µM (inactive); GI50 (HCC 2998): > 100 µM (inactive); GI50 (Hs-578T): > 100 µM (inactive); GI50 (SNB-75): > 100 µM (inactive); GI50 (Malme-3M): > 100 µM (inactive); GI50 (IGROV-1): > 100 µM (inactive); GI50 (PC-3): > 100 µM (inactive); GI50 (SW-620): > 100 µM (inactive); GI50 (SF-295): > 100 µM (inactive); GI50 (OVCAR-5): > 100 µM (inactive); GI50 (T47D): > 100 µM (inactive); GI50 (SK-MEL-5): > 100 µM (inactive); GI50 (HL-60): > 100 µM (inactive); GI50 (A549): > 100 µM (inactive); GI50 (UACC-62): > 100 µM (inactive); GI50 (HOP-92): > 100 µM (inactive); GI50 (NCI/ADR-RES): > 100 µM (inactive); GI50 (RXF 393): > 100 µM (inactive); GI50 (LOX IMVI): > 100 µM (inactive); GI50 (MDA-MB-435): > 100 µM (inactive); GI50 (SK-MEL-2): > 100 µM (inactive); GI50 (DU-145): > 100 µM (inactive); GI50 (HCT-116): > 100 µM (inactive); GI50 (SF-268): > 100 µM (inactive); GI50 (EKVX): > 100 µM (inactive); GI50 (MDA-N): > 100 µM (inactive); GI50 (HOP-62): > 100 µM (inactive); GI50 (SK-OV-3): > 100 µM (inactive); GI50 (NCI-H522): > 100 µM (inactive); GI50 (OVCAR-3): > 100 µM (inactive); GI50 (SR): > 100 µM (inactive); GI50 (MCF7): > 100 µM (inactive); GI50 (U-251): > 100 µM (inactive); GI50 (UO-31): > 100 µM (inactive); GI50 (CCRF-CEM): 56.2 µM (inactive); GI50 (BT-549): > 100 µM (inactive); GI50 (K562): > 100 µM (inactive); GI50 (COLO 205): > 100 µM (inactive); GI50 (HCT-15): > 100 µM; GI50 (ACHN): > 100 µM (inactive); GI50 (OVCAR-8): > 100 µM (inactive); GI50 (SN12C): > 100 µM (inactive); GI50 (RPMI-8226): > 100 µM (inactive); GI50 (TK-10): > 100 µM (inactive)
